Source: patent US5994299A, “Cyclosporin compounds, their preparation and the pharmaceutical compositions which contain them” (Rhone-Poulenc Rorer, S.A., priority 1996, dated 1999)
Where two headings read alike, the source gives them in different places.

Assays:
[1] = EP 484,281 and Eur. J. Immunol., 17, 1359 (1987); cited from earlier work

In the case of [4'-hydroxy-MeLeu]^4 -cyclosporin A, the immunosuppressing nature [1] is listed as “not immunosuppressing”.

With “[(R)-2-(N,N-Dimethylamino)ethylthio-Sar]^3 -[4'-hydroxy-MeLeu]^4 -cyclosporin A [Example 1]” the effect of combination (retroviruses; combined with AZT, ddl, Saquinavir, Nevirapin, Ritonavir and/or ribavirin) was “synergistic effect” and the effect of combination (retroviruses; combined with Indinavir) was “additive effect”.
